Laboratory results published in article PMC12136037, “Type II kinase inhibitors that target Parkinson’s disease–associated LRRK2” (Science Advances, 2025).
Read-outs that look alike come from different tables or passages of the source.

How the values were obtained:
Experiment in all cases: DSF 100 kinase selectivity screen;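 further: compound tested at 20 µM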
Assay type in all cases: binding
[1] = target: T1, ~100 representative kinases (Homo sapiens, UniProt Q13153); details: protein PAK1; average of three replicates
T1 construct: Recombinant protein kinase domains with a concentration of 2 μM
Procedure, shortened: (§1)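 Each kinase domain, at 2 μM, is mixed with 20 μM test compound and SYPRO Orange in Hepes (20 mM, pH 7.5) with 500 mM NaCl. Temperature is then raised at 3°C/min and fluorescence-monitored unfolding yields the melting temperature change, ΔTm in degrees Celsius.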

[2] = target: T2, ~100 representative kinases (Homo sapiens, UniProt O00444); details: protein PLK4; average of three replicates
T2 construct: Recombinant protein kinase domains with a concentration of 2 μM
T2 sequence (O00444 1-970): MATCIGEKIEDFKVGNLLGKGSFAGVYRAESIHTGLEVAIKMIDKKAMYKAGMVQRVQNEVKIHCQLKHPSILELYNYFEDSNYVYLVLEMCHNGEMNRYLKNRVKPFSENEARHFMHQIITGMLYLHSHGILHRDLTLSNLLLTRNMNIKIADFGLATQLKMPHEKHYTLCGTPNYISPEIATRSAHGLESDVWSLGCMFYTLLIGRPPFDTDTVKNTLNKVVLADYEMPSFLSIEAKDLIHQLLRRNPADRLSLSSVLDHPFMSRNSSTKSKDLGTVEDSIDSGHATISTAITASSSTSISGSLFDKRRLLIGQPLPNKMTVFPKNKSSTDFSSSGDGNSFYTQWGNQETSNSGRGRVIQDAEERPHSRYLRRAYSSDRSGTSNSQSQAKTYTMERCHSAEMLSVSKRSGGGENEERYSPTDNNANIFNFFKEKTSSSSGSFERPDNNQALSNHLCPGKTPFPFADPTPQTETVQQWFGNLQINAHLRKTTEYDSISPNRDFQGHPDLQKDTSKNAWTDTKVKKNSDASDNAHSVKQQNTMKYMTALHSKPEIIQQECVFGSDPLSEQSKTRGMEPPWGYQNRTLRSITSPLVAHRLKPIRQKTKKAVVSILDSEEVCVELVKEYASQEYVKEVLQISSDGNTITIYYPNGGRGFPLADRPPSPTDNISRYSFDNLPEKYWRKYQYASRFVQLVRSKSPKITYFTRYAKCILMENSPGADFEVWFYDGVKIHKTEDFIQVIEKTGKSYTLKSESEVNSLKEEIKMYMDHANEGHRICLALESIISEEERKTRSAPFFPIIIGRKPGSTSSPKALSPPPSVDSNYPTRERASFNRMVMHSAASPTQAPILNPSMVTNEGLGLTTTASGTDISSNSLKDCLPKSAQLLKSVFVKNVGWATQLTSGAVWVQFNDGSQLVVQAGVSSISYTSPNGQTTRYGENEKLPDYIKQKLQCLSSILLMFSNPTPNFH
Procedure, shortened: as §1

[3] = target: T3, ~100 representative kinases (Homo sapiens, UniProt Q92630); details: Protein DYRK2; average of three replicates
T3 construct: Recombinant protein kinase domains with a concentration of 2 μM
T3 sequence (Q92630 1-601): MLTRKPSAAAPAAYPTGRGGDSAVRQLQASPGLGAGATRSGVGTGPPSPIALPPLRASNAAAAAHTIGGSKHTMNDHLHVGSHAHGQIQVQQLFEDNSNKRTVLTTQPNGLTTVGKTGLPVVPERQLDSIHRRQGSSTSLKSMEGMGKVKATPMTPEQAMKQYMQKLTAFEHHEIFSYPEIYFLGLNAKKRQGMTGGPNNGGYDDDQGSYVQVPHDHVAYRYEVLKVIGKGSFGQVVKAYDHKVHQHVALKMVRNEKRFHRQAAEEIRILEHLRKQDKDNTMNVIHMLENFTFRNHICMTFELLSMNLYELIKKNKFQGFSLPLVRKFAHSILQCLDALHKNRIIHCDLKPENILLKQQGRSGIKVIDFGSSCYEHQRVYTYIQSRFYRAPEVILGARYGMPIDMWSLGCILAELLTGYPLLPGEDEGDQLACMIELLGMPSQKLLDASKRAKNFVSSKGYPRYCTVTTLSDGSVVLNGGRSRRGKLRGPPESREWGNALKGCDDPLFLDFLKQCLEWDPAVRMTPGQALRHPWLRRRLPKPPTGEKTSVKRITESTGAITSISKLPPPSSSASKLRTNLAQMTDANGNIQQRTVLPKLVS
Procedure, shortened: as §1

[4] = target: T4, ~100 representative kinases (Homo sapiens, UniProt Q9H2G2)
T4 construct: Recombinant protein kinase domains with a concentration of 2 μM
Procedure, shortened: as §1

[5] = target: T5, ~100 representative kinases (Homo sapiens, UniProt P54762); details: Protein EPHB1; average of three replicates
T5 construct: Recombinant protein kinase domains with a concentration of 2 μM
T5 sequence (P54762 18-984): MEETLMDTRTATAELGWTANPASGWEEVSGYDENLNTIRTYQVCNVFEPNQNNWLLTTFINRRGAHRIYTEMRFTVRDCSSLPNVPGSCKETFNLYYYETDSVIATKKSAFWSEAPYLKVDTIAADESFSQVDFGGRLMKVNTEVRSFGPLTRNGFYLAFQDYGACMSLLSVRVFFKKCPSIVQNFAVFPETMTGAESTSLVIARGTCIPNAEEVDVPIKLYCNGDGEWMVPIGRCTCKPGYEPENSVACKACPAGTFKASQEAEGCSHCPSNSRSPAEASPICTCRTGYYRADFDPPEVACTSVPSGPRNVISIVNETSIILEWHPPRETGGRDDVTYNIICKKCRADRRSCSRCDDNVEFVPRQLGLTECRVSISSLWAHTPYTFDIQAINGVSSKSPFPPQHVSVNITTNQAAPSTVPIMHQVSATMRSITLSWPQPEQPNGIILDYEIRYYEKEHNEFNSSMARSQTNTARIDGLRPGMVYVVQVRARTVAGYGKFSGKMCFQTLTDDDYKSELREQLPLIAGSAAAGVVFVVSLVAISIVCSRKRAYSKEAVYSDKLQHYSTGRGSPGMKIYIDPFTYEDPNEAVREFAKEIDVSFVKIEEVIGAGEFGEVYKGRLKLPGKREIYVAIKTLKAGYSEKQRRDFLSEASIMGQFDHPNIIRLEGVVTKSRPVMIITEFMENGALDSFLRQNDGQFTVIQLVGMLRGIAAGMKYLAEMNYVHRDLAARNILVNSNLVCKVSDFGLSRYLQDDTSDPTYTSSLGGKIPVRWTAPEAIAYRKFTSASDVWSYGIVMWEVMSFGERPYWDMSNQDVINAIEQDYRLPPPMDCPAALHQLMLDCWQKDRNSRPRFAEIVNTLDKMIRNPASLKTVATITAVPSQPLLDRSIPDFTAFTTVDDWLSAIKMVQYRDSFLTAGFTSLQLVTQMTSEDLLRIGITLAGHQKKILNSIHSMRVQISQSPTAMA
Procedure, shortened: as §1

[6] = Protein SLK, DSF, average of three replicates

T4 sequence (Q9H2G2 whole entry, the tested form may be a part): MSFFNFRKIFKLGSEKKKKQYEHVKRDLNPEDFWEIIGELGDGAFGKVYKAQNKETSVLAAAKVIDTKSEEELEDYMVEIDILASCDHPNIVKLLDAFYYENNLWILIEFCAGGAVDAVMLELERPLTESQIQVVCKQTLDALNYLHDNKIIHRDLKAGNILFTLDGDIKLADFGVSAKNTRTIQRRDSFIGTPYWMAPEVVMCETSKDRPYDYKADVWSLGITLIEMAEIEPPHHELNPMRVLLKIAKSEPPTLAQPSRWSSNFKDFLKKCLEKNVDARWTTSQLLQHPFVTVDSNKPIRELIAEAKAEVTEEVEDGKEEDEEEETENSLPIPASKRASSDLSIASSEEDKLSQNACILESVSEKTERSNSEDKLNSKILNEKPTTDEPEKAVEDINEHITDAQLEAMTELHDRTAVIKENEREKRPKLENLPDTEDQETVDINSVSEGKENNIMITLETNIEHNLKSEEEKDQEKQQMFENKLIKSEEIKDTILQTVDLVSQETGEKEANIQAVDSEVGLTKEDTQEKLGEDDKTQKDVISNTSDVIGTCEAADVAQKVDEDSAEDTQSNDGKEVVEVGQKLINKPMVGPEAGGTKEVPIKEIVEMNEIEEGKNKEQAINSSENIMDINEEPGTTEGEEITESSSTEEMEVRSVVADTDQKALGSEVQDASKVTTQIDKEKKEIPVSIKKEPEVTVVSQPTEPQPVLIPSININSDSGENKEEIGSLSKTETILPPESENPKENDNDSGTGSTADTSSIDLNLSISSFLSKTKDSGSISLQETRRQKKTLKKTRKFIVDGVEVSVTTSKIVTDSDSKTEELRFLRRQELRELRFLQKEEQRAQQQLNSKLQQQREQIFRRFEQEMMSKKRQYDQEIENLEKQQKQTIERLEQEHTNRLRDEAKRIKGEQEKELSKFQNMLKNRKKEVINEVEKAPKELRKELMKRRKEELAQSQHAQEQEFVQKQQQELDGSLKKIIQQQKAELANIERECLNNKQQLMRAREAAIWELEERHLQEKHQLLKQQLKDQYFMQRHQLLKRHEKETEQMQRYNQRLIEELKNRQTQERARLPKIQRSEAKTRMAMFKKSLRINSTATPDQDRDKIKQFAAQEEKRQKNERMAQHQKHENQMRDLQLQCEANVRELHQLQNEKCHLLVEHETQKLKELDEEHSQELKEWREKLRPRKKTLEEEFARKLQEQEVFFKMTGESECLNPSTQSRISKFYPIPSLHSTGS
T1 sequence (Q13153 whole entry, the tested form may be a part): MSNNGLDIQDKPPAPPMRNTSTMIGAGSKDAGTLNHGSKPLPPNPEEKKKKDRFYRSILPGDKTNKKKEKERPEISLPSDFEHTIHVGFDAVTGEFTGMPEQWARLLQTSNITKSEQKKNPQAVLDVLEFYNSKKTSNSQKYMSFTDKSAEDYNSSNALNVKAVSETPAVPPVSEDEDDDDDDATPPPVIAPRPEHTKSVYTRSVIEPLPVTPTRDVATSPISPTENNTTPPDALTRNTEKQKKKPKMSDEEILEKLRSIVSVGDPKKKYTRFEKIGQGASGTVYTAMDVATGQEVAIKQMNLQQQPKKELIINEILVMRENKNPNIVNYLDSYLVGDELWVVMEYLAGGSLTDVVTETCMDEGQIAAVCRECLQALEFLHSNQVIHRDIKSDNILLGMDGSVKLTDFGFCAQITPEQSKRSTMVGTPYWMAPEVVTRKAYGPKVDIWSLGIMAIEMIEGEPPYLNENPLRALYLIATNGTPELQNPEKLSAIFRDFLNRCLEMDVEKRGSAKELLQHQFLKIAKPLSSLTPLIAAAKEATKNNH

dTm [1] | dTm [2] | dTm [3] | dTm [4, 6] | dTm [5] | Compound | dTm [4]
1.05 K | 7.20 K | 3.88 K | 4.42 K | 2.11 K | O=C(Nc1cccc(-c2c[nH]c3ncnc(N4CCOCC4)c23)c1)C1(C(=O)Nc2ccc(F)cc2F)CC1 [Compound 23] | 
6.40 K | 12.28 K | 10.73 K | 8.94 K | 4.46 K | Cc1cc(NC(=O)C2(C(=O)Nc3cccc(-c4c[nH]c5ncnc(N6CCOCC6)c45)c3)CC2)ccc1F [Compound 20] | 
0.00835 K | 0.19 K | 6.61 K | 9.23 K | 0.39 K | CC(=O)N1CCN(c2nc(Cl)nc3[nH]cc(-c4cccc(NC(=O)Nc5cc(C(C)(C)C)nn5-c5ccc(C)cc5)c4)c23)CC1 [Compound 31] | 
1.55 K | 7.27 K | 5.04 K | 4.64 K | 1.49 K | Cc1cc(NC(=O)C2(C(=O)Nc3ccc(F)cc3)CC2)cc(-c2c[nH]c3ncnc(N4CCOCC4)c23)c1 [Compound 6] | 
1.90 K | 6.79 K | 6.15 K | 5.53 K | 2.37 K | O=C(Nc1ccccc1)C1(C(=O)Nc2cccc(-c3c[nH]c4ncnc(N5CCOCC5)c34)c2)CC1 [Compound 12] | 
5.56 K | 0.00 K | 3.42 K | 8.05 K | 1.85 K | O=C(Nc1cccc(-c2c[nH]c3ncnc(N4CCOCC4)c23)c1)C1(C(=O)Nc2ccc(F)c(Br)c2)CC1 [Compound 19] | 
0.76 K | 0.26 K | 3.48 K | 8.39 K | -0.80 K | Cc1ccc(-n2nc(C(C)(C)C)cc2NC(=O)Nc2cccc(-c3c[nH]c4nc(Cl)nc(N5CCOCC5)c34)c2)cc1 [Compound 30] | 
5.08 K | 3.84 K | 10.25 K | 13.85 K | 11.35 K | CC(C)(C)c1cc(NC(=O)Nc2cccc(-c3c[nH]c4ncnc(N5CCOCC5)c34)c2)n(-c2ccc3ncccc3c2)n1 [Compound 28] | 
-0.11 K | 1.52 K | 4.85 K | 0.62 K | 0.07 K | CCNc1nc(Nc2cc(F)c(C(=O)N3CCOCC3)cc2OC)ncc1C(F)(F)F [GNE-7915] | 
3.04 K | 7.44 K | 4.30 K | 0.75 K | -11.24 K | O=C(Nc1cccc(-c2c[nH]c3ncnc(N4CCOCC4)c23)c1)C1(C(=O)Nc2cccc3c2CCC3)CC1 [Compound 11] | 
5.39 K | 7.28 K | 9.51 K | 8.41 K | 3.41 K | O=C(Nc1cccc(-c2c[nH]c3ncnc(N4CCOCC4)c23)c1)C1(C(=O)Nc2ccc(F)c(Cl)c2)CC1 [Compound 18] | 
2.44 K | 7.55 K | 6.23 K | 5.25 K | 3.63 K | Cc1ccc(NC(=O)C2(C(=O)Nc3cccc(-c4c[nH]c5ncnc(N6CCOCC6)c45)c3)CC2)cc1 [Compound 14] | 
3.82 K | 9.01 K | 9.27 K | 7.45 K | 5.42 K | O=C(Nc1ccc(Cl)cc1)C1(C(=O)Nc2cccc(-c3c[nH]c4ncnc(N5CCOCC5)c34)c2)CC1 [Compound 13] | 
-1.33 K | 10.15 K | 5.31 K | -1.49 K | -0.27 K | COc1cc(C(=O)N2CCOCC2)c(F)cc1Nc1nc(N(C)C)c2c(Cl)c[nH]c2n1 [Compound 36] | 
2.06 K | 8.51 K | 7.92 K | 6.64 K | 3.27 K | O=C(Nc1ccc(F)cc1)C1(C(=O)Nc2cccc(-c3c[nH]c4ncnc(N5CCOCC5)c34)c2)CC1 [Compound 2] | 
0.47 K | 4.53 K | 3.09 K | 1.57 K | 0.79 K | COc1ccc(NC(=O)C2(C(=O)Nc3cccc(-c4c[nH]c5ncnc(N6CCOCC6)c45)c3)CC2)cc1 [Compound 16] | 
1.52 K | 6.48 K | 3.91 K |  | 4.85 K | Cc1ccc(C(=O)Nc2ccc(CN3CCN(C)CC3)c(C(F)(F)F)c2)cc1C#Cc1c[nH]c2ncnc(N3CCOCC3)c12 [Compound 1] | 

Compound | dTm [1] | dTm [2] | dTm [3] | dTm [4, 6] | dTm [5] | dTm [4]
Cn1cc(-c2c[nH]c3ncnc(N4CCOCC4)c23)cc1C#N [PFE-360] | -0.19 K | 4.43 K | 1.08 K | 3.08 K | -0.08 K | 
COc1cc2c(Oc3ccc(NC(=O)C4(C(=O)Nc5ccc(F)cc5)CC4)cc3F)ccnc2cc1OCCCN1CCOCC1 [Foretinib, reference compound] | 1.69 K | 16.61 K | 4.19 K | 8.07 K | 12.70 K | 
Cc1ccc(C(=O)Nc2ccc(CN3CCN(C)CC3)c(C(F)(F)F)c2)cc1C#Cc1cnc2[nH]ncc2c1 [GZD-824, reference compound] | 4.19 K | 2.97 K | 4.99 K |  | 14.98 K | 15.82 K
CN[C@@H]1C[C@H]2O[C@@](C)([C@@H]1OC)n1c3ccccc3c3c4c(c5c6ccccc6n2c5c31)C(=O)NC4 [Staurosporine] | 7.21 K | 19.68 K |  |  |  | 
